The results in this text go back to patent US8173682B2, “Substituted pyridones as inhibitors of poly(ADP-ribose) polymerase (PARP)” (Aventis Pharmaceuticals Inc., priority 2004, dated 2012).

What is called IC50 is the midpoint of a concentration-inhibition curve.

For the assay, the target named is T1, recombinant human PARP (PARP1) (Homo sapiens, UniProt P09874).
T1 construct: Full length human PARP (PARP1) is assembled from PCR fragments; His6 tag with TEV site, from the pFastBac-HTb vector (own knowledge of the vector); made in house; host or cells: insect cells, baculovirus (Bac-to-Bac, Gibco-BRL)
T1 sequence (P09874 whole entry, the tested form may be a part): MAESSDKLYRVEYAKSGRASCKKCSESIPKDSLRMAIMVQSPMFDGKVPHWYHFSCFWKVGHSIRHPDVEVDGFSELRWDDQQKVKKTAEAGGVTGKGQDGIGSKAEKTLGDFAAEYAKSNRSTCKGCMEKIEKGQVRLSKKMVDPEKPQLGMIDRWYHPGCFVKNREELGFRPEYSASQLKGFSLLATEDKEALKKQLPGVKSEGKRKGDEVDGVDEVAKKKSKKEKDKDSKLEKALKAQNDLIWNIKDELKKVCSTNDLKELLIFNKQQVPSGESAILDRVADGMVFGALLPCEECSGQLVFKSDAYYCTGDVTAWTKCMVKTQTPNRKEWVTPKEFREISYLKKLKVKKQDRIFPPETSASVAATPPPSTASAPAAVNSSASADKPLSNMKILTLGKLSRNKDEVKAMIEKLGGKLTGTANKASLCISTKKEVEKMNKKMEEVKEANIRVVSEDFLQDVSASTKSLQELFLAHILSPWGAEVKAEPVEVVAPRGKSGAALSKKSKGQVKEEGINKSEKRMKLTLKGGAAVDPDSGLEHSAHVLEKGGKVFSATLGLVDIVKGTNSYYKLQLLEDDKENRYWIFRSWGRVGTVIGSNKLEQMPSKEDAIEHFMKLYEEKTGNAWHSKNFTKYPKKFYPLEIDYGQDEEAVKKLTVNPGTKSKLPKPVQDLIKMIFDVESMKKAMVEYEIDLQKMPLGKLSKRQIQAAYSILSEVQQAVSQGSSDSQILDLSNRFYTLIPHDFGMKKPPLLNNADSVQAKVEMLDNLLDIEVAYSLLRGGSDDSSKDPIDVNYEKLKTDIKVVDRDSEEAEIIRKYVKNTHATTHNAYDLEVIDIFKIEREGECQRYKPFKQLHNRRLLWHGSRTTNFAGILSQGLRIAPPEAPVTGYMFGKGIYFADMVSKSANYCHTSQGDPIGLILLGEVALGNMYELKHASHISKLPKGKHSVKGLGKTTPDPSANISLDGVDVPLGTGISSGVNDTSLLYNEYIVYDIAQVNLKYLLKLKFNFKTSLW
The assay is described as follows: PARP enzyme assay, Method A (radioactivity or 'ELISA' enzyme assay with partially purified enzyme). In kind it is biochemical. The following applies: recombinant human PARP preparation, radioactive or ELISA enzyme assay. From the text: Two different methods are employed in determining the activity of the compounds of this invention in inhibiting the activity of PARP enzyme, designated as Method A and Method B respectively as set forth below.
Method A: Cloning and Expression, and Partial Purification of Recombinant Human PARP:
Full length human PARP (PARP1) is assembled from PCR fragments of a clone from a human brain cDNA library and two Incyte clones. The PARP gene (3046 bp) is sub-cloned into pFastBac-HTb vector to give PARP-pFastBac-HTb and the sequence of this clone is verified. PARP-pFastBac-HTb is expressed to obtain protein using the Bac-to-Bac expression protocol from Gibco-BRL. The recombinant virus generated is used to scale up the material for purification.
Cell pellets from cell broth of cells expressing PARP are treated with a cocktail of protease inhibitors and lysed by 4 freeze-thaw cycles. The material is suspended in 10 mM HEPES/0.1M NaCl/pH 7.2, stirred, and then centrifuged. A 40%-70% ammonium sulfate cut of protein pellet is obtained from the supernatant. The pellet is solubilized in 10 mM HEPES/pH 7.2 and centrifuged. The supernatant buffer is exchanged to 10 mM HEPES/pH 7.2/0.1M NaCl/25% glycerol by dialysis or with a desalting column. The enzyme preparation is stored at −20° C. until use.
The compounds of this invention are then tested with this enzyme preparation using either the radioactive enzyme assay or by the “ELISA” enzyme assay as set forth below.
Radioactivity Enzyme Assay:
Incorporation of radioactivity from labeled NAD into acid-precipitated protein is measured. The reaction mixture (volume 100 μL or 50 μL, in a test-tube or 96-well plate) contained 100 μg/mL calf thymus DNA (sonicated), 100 μg/mL histones, 100 mM Tris (pH 8.0), 1.0 mM DTT, 10 mM MgCl2, NAD (200 μM, 0.65 microcurie/mL), and varying amounts of enzyme. The reaction was incubated for 10 min at 37° C. or at room temperature for 60 min. The reaction was stopped and protein precipitated by addition of ice-cold trichloroacetic acid (TCA; 10% or 20% aqueous w/v). After brief storage in ice or at 4° C. for 2 hrs, the reaction mixture is filtered under vacuum through a glass fiber filter (2.5 cm disc, or 96-well filter plate). After washing with TCA and ethanol, the filter is dried and counted for tritium CPM after addition of scintillation fluid.
Incorporation of biotin-NAD into histone coated on plate is measured. A 96-well protein-binding EIA plate is coated with histone and blocked with bovine serum albumin. The reaction mixture (50 μL) contained DNA, buffer, enzyme, (test compound), and 250 μM of NAD and 5 μL of biotin-NAD (Trevigen). After reaction at room temperature the wells are washed and treated with Extravidin (Sigma). After incubation and washing color is developed with the peroxidase substrate TMB (Sigma). The TMB reaction is quenched with 2M sulfuric acid and the absorbance at 450 nm is read.

Structures can show the parent of a compound that is named as a salt.

As for `CCc1cc(-c2ccc(CNCCC3=CCCCC3)s2)c(C)[nH]c1=O` [Example 144, 5-{5-[(2-Cyclohex-1-enyl-ethylamino)-methyl]thiophen-2-yl}-3-ethyl-6-methyl-1H-pyridin-2-one hydrochloride], the concentration for half-maximal inhibition (IC50) was found to be 0.62 µM.

Regarding `CCc1cc(-c2ccc(S(=O)(=O)N3CCN(c4ccncc4)CC3)o2)c(C)[nH]c1=O` [Example 45, 3-Ethyl-6-methyl-5-{5-[(4-pyridin-4-yl)piperazine-1-sulfonyl]furan-2-yl}-1H-pyridin-2-one hydrochloride], the IC50 was 0.22 µM.

Regarding `CCc1cc(-c2ccc(CN3CCC(=O)CC3)s2)c(C)[nH]c1=O` [Example 150, 3-Ethyl-6-methyl-5-[5-(4-oxo-piperidin-1-ylmethy)-thiophen-2-yl]-1H-pyridin-2-one hydrochloride], the IC50 came out at 1.3 µM.

As for `CCc1cc(-c2ccc(CN3CCCC3)s2)c(C)[nH]c1=O` [Example 171, 3-Ethyl-6-methyl-5-(5-pyrrolidin-1-ylmethylthiophen-2-yl)-1H-pyridin-2-one hydrochloride], the IC50 stood at 0.48 µM.

Turning to `CCc1cc(-c2ccc(S(=O)(=O)NC3CCN(Cc4ccc(Cl)cc4)CC3)s2)c(C)[nH]c1=O` [Example 76, 5-[5-Ethyl-2-methyl-6-oxo-1,6-dihydropyridin-3-yl]-thiophene-2-sulfonic acid 1-(4-chlorobenzyl)piperidin-4-yl]amide hydrochloride], the IC50 worked out at 0.23 µM.

On to `CCc1cc(-c2ccc(CNC3CCN(c4nccc(C(F)(F)F)n4)CC3)s2)c(C)[nH]c1=O` [Example 139, dihydrochloride], for which the IC50 was 2.6 µM.

On to `CCc1cc(-c2ccc(S(=O)(=O)NC3CCN(Cc4ccccc4)CC3)o2)c(C)[nH]c1=O` [Example 46, 5-(5-Ethyl-2-methyl-6-oxo-1,6-dihydropyridin-3-yl)furan-2-sulfonic acid (1-benzylpiperidin-4-yl)amide hydrochloride], for which the IC50 turned out to be 0.46 µM.

As for `CCc1cc(-c2ccc(S(=O)(=O)NCc3ccco3)s2)c(C)[nH]c1=O` [Example 97, 5-(5-Ethyl-2-methyl-6-oxo-1,6-dihydropyridin-3-yl)-thiophene-2-sulfonic acid (furan-2-ylmethyl)amide], the IC50 came out at 0.18 µM.

`CCc1cc(-c2ccc(CNCCN3CCCC3)s2)c(C)[nH]c1=O` [Example 154, 3-Ethyl-6-methyl-5-{5-{[(2-pyrrolidin-1-ylethylamino)-methyl]thiophen-2-yl)-1H-pyridin-2-one dihydrochloride]: the IC50 is 0.53 µM.

For `CCc1cc(-c2ccc(S(=O)(=O)NCCNc3ccccc3)s2)c(C)[nH]c1=O` [Example 32, 5-(5-Ethyl-2-methyl-6-oxo-1,6-dihydropyridin-3-yl)thiophene-2-sulfonic acid 2-phenylaminoethylamide hydrochloride], the concentration for half-maximal inhibition (IC50) was found to be 2.9 µM.

For the compound `CCc1cc(-c2ccc(CNc3cc(C(=O)OC)n(C)c3)s2)c(C)[nH]c1=O` [Example 130, 4-{[5-(5-Ethyl-2-methyl-6-oxo-1,6-dihydro-pyridin-3-yl)-thiophen-2-ylmethyl]-amino}-1-methyl-1H-pyrrole-2-carboxylic acid methyl ester dihydrochloride], the IC50 came out at 1.2 µM.

For `CCc1cc(-c2ccc(CNCc3cccnc3)s2)c(C)[nH]c1=O` [Example 162, 3-Ethyl-6-methyl-5-{5-{[(pyridin-3-ylmethyl)amino]methyl}thiophen-2-yl)-1H-pyridin-2-one dihydrochloride], the IC50 was 0.52 µM.

With `CCc1cc(-c2ccc(CN(C)C3CCN(C)C3)s2)c(C)[nH]c1=O` (stereo not shown) [Example 133, 5-{5-[Methyl(1-methylpyrrolidin-3-yl)amino-methyl]thiophen-2-yl}-3-ethyl-6-methyl-1H-pyridin-2-one dihydrochloride], the IC50 was found to be 2.8 µM.

Consider `CCc1cc(-c2ccc(CN3CCC[C@H]3COC)s2)c(C)[nH]c1=O` [Example 191, 3-Ethyl-5-{5-[(S)-2-methoxymethylpyrrolidin-1-ylmethyl]thiophen-2-yl}-6-methyl-1H-pyridin-2-one hydrochloride], for which the half-maximal inhibitory concentration (IC50) turned out to be 0.8 µM.

For the compound `CCc1cc(-c2ccc(CN[C@H]3CC[C@H](O)CC3)s2)c(C)[nH]c1=O` [Example 125, 3-Ethyl-5-{5-[(4-hydroxycyclohexylamino)methyl]thiophen-2-yl]-6-methyl-1H-pyridin-2-one hydrochloride], the IC50 was determined as 0.45 µM.

As for `CCc1cc(-c2ccc(S(=O)(=O)NCC3CCCN3CC)s2)c(C)[nH]c1=O` (stereo not shown) [Example 102, 5-(5-Ethyl-2-methyl-6-oxo-1,6-dihydropyridin-3-yl)-thiophene-2-sulfonic acid (1-ethyl-pyrrolidin-2-ylmethyl)amide hydrochloride], the IC50 came to 0.49 µM.

`CCc1cc(-c2ccc(S(=O)(=O)NC3CCN(CC4CC4)CC3)s2)c(C)[nH]c1=O` [Example 74, 5-[5-Ethyl-2-methyl-6-oxo-1,6-dihydropyridin-3-yl]thiophene-2-sulfonic acid (1-cyclopropylmethylpiperidin-4-yl)amide hydrochloride]: the IC50 turned out to be 0.36 µM.

`CCc1cc(-c2ccc(CNC(C)C(C)C)s2)c(C)[nH]c1=O` (stereo not shown) [Example 147, 5-{5-[(3-methylbut-2-ylamino)methyl]thiophen-2-yl}-3-ethyl-6-methyl-1H-pyridin-2-one hydrochloride]: the IC50 stood at 0.49 µM.

With `CCc1cc(-c2ccc(S(=O)(=O)NC3CCN(CC4CCCCC4)CC3)s2)c(C)[nH]c1=O` [Example 75, 5-(5-Ethyl-2-methyl-6-oxo-1,6-dihydropyridin-3-yl)thiophene-2-sulfonic acid (1-cyclohexylmethylpiperidin-4-yl)amide hydrochloride], the IC50 came out at 0.3 µM.

As for `CCc1cc(-c2ccc(CNC3CC3)s2)c(C)[nH]c1=O` [Example 142, 5-(5-Cyclopropylaminomethyl-thiophen-2-yl)-3-ethyl-6-methyl-1H-pyridin-2-one hydrochloride], the concentration for half-maximal inhibition (IC50) amounted to 2.1 µM.

`CCc1cc(-c2ccc(S(=O)(=O)NCC(O)c3ccccc3)s2)c(C)[nH]c1=O` (stereo not shown) [Example 114, 5-(5-Ethyl-2-methyl-6-oxo-1,6-dihydropyridin-3-yl)thiophene-2-sulfonic acid (2-hydroxy-2-phenylethyl)amide]: the IC50 turned out to be 0.37 µM.

As for `CCc1cc(-c2ccc(S(=O)(=O)NCCOC)s2)c(C)[nH]c1=O` [Example 33, 5-(5-Ethyl-2-methyl-6-oxo-1,6-dihydropyridin-3-yl)thiophene-2-sulfonic acid (2-methoxyethyl)amide], the IC50 was determined as 10.5 µM.

Turning to `CCc1cc(-c2ccc(CNC(=O)CN3CCCC3)s2)c(C)[nH]c1=O` [Example 176, N-[5-(5-Ethyl-2-methyl-6-oxo-1,6-dihydropyridin-3-yl)thiophen-2-ylmethyl]-2-(pyrrolidin-1-yl)acetamide hydrochloride], the IC50 stood at 0.28 µM.

As to `CCc1cc(-c2ccc(S(=O)(=O)N(C)CC(O)c3ccccc3)s2)c(C)[nH]c1=O` (stereo not shown) [Example 37, 5-(5-Ethyl-2-methyl-6-oxo-1,6-dihydropyridin-3-yl)thiophene-2-sulfonic acid (2-hydroxy-2-phenylethyl)methylamide], the half-inhibitory concentration (IC50) came out at 2 µM.

On to `CCc1cc(-n2ccnn2)c(C)[nH]c1=O` [Example 13, 3-Ethyl-6-methyl-5-(1,2,3-triazol-1-yl)-1H-pyridin-2-one], for which the IC50 is 2.1 µM.
